Measurements published in PubChem BioAssay (NCI).
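Protocol summary: plate cells (96-well), add compound at 5 concentrations, incubate 48 h, interpolate endpoints linearly. GI50 marks 50% less growth. TGI: concentration producing complete growth inhibition.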

Experiments:
Assay in all cases: growth of human tumour cells (NCI), 48 h; in the data active = GI50 below about 0.43 µM; inactive = the rest
HT29 colon = system: HT29 colon
RXF 393 renal = system: RXF 393 renal
HCC-2998 colon = system: HCC-2998 colon
A549 NSCLC = system: A549 NSCLC
ACHN renal = system: ACHN renal
OVCAR-4 ovarian = system: OVCAR-4 ovarian
SF-268 CNS = system: SF-268 CNS
M14 melanoma = system: M14 melanoma
SK-MEL-2 melanoma = system: SK-MEL-2 melanoma
SW-620 colon = system: SW-620 colon
SNB-75 CNS = system: SNB-75 CNS
HS 578T breast = system: HS 578T breast
NCI-H460 lung = system: NCI-H460 lung
NCI-H23 lung = system: NCI-H23 lung
KM12 colon = system: KM12 colon
T-47D breast = system: T-47D breast
OVCAR-8 ovarian = system: OVCAR-8 ovarian
UACC-62 melanoma = system: UACC-62 melanoma
SF-295 CNS = system: SF-295 CNS
OVCAR-3 ovarian = system: OVCAR-3 ovarian
LOX IMVI melanoma = system: LOX IMVI melanoma
HOP-62 NSCLC = system: HOP-62 NSCLC
OVCAR-5 ovarian = system: OVCAR-5 ovarian
PC-3 prostate = system: PC-3 prostate
NCI-H522 lung = system: NCI-H522 lung
IGROV1 ovarian = system: IGROV1 ovarian
UACC-257 melanoma = system: UACC-257 melanoma
CAKI-1 renal = system: CAKI-1 renal
SN12C renal = system: SN12C renal
MCF7 breast = system: MCF7 breast
HOP-92 NSCLC = system: HOP-92 NSCLC
MDA-MB-231 breast = system: MDA-MB-231 breast
786-0 renal = system: 786-0 renal
SK-MEL-28 melanoma = system: SK-MEL-28 melanoma
SK-OV-3 ovarian = system: SK-OV-3 ovarian
SF-539 CNS = system: SF-539 CNS
NCI/ADR-RES ovarian = system: NCI/ADR-RES ovarian
SR leukemia = system: SR leukemia
CCRF-CEM leukemia = system: CCRF-CEM leukemia
HL-60(TB) leukemia = system: HL-60(TB) leukemia
HCT-116 colon = system: HCT-116 colon
NCI-H226 lung = system: NCI-H226 lung
MDA-MB-435 = system: MDA-MB-435
BT-549 breast = system: BT-549 breast
MOLT-4 leukemia = system: MOLT-4 leukemia
K-562 leukemia = system: K-562 leukemia
SNB-19 CNS = system: SNB-19 CNS
HCT-15 colon = system: HCT-15 colon
MALME-3M melanoma = system: MALME-3M melanoma
TK-10 renal = system: TK-10 renal
UO-31 renal = system: UO-31 renal
A498 renal = system: A498 renal
EKVX NSCLC = system: EKVX NSCLC
SK-MEL-5 melanoma = system: SK-MEL-5 melanoma
COLO 205 colon = system: COLO 205 colon
DU-145 prostate = system: DU-145 prostate
U251 CNS = system: U251 CNS
RPMI-8226 leukemia = system: RPMI-8226 leukemia
MDA-N = system: MDA-N

COc1ccccc1N1CCN(CCc2c[nH]c3cc4c(cc23)OCO4)CC1
> 100 µM: TGI (HT29 colon) | TGI (A549 NSCLC) | TGI (ACHN renal) | TGI (OVCAR-4 ovarian) | TGI (SF-268 CNS) | TGI (SW-620 colon) | TGI (SNB-75 CNS) | TGI (NCI-H460 lung) | TGI (NCI-H23 lung) | TGI (KM12 colon) | TGI (OVCAR-8 ovarian) | TGI (UACC-62 melanoma) | TGI (OVCAR-3 ovarian) | TGI (HOP-62 NSCLC) | TGI (OVCAR-5 ovarian) | TGI (PC-3 prostate) | TGI (NCI-H522 lung) | TGI (IGROV1 ovarian) | TGI (SN12C renal) | TGI (MCF7 breast) | TGI (HOP-92 NSCLC) | TGI (786-0 renal) | TGI (SK-MEL-28 melanoma) | TGI (SK-OV-3 ovarian) | TGI (SF-539 CNS) | TGI (NCI/ADR-RES ovarian) | TGI (CCRF-CEM leukemia) | TGI (HL-60(TB) leukemia) | TGI (HCT-116 colon) | TGI (NCI-H226 lung) | TGI (BT-549 breast) | TGI (MOLT-4 leukemia) | TGI (K-562 leukemia) | TGI (SNB-19 CNS) | TGI (HCT-15 colon) | TGI (MALME-3M melanoma) | TGI (TK-10 renal) | TGI (UO-31 renal) | TGI (DU-145 prostate) | TGI (U251 CNS) | TGI (RPMI-8226 leukemia)
40.7 µM: TGI (M14 melanoma)
56.3 µM: TGI (SK-MEL-2 melanoma)
77.7 µM: TGI (MDA-MB-231 breast)
92.9 µM: TGI (RXF 393 renal)
52.3 µM: TGI (MDA-MB-435)
34.7 µM: TGI (COLO 205 colon)
70.9 µM: TGI (HS 578T breast)
60.8 µM: TGI (CAKI-1 renal)
64.6 µM: TGI (EKVX NSCLC)
99 µM: TGI (SR leukemia)
88.9 µM: TGI (UACC-257 melanoma)
27.7 µM: TGI (SF-295 CNS)
32.6 µM: TGI (HCC-2998 colon)
77.3 µM: TGI (T-47D breast)
35.7 µM: TGI (LOX IMVI melanoma)
inactive: GI50 (HT29 colon) 3.39 µM | GI50 (RXF 393 renal) 17.9 µM | GI50 (HCC-2998 colon) 16.5 µM | GI50 (A549 NSCLC) 31 µM | GI50 (ACHN renal) 21.3 µM | GI50 (OVCAR-4 ovarian) 37.7 µM | GI50 (SF-268 CNS) 35.6 µM | GI50 (M14 melanoma) 11.3 µM | GI50 (SK-MEL-2 melanoma) 21.3 µM | GI50 (SW-620 colon) 22 µM | GI50 (SNB-75 CNS) 25 µM | GI50 (HS 578T breast) 20.1 µM | GI50 (NCI-H460 lung) 15.5 µM | GI50 (NCI-H23 lung) 23.4 µM | GI50 (KM12 colon) 27.3 µM | GI50 (T-47D breast) 19.8 µM | GI50 (OVCAR-8 ovarian) 42 µM | GI50 (UACC-62 melanoma) 32.2 µM | GI50 (SF-295 CNS) 0.646 µM | GI50 (OVCAR-3 ovarian) 30.2 µM | GI50 (LOX IMVI melanoma) 11.6 µM | GI50 (HOP-62 NSCLC) 28.6 µM | GI50 (OVCAR-5 ovarian) 15.5 µM | GI50 (PC-3 prostate) 20 µM | GI50 (NCI-H522 lung) 44.2 µM | GI50 (IGROV1 ovarian) 40.2 µM | GI50 (UACC-257 melanoma) 26.5 µM | GI50 (CAKI-1 renal) 18.5 µM | GI50 (SN12C renal) 23.5 µM | GI50 (MCF7 breast) 33.3 µM | GI50 (HOP-92 NSCLC) 14.3 µM | GI50 (MDA-MB-231 breast) 21.4 µM | GI50 (786-0 renal) 32.4 µM | GI50 (SK-MEL-28 melanoma) 43.9 µM | GI50 (SK-OV-3 ovarian) 81.6 µM | GI50 (SF-539 CNS) 20.2 µM | GI50 (NCI/ADR-RES ovarian) 26.4 µM | GI50 (SR leukemia) 23.8 µM | GI50 (CCRF-CEM leukemia) 29.8 µM | GI50 (HL-60(TB) leukemia) 10.4 µM | GI50 (HCT-116 colon) 10.9 µM | GI50 (NCI-H226 lung) 29.9 µM | GI50 (MDA-MB-435) 14 µM | GI50 (BT-549 breast) 23.3 µM | GI50 (MOLT-4 leukemia) 38.8 µM | GI50 (K-562 leukemia) 24.4 µM | GI50 (SNB-19 CNS) 26 µM | GI50 (HCT-15 colon) 29.6 µM | GI50 (MALME-3M melanoma) 27.9 µM | GI50 (TK-10 renal) 27.1 µM | GI50 (UO-31 renal) 20.3 µM | GI50 (A498 renal) 16.6 µM | GI50 (EKVX NSCLC) 16.8 µM | GI50 (SK-MEL-5 melanoma) 13.2 µM | GI50 (COLO 205 colon) 15.3 µM | GI50 (DU-145 prostate) 28.9 µM | GI50 (U251 CNS) 32.2 µM | GI50 (RPMI-8226 leukemia) 25.1 µM
83 µM: TGI (A498 renal)
26.2 µM: TGI (SK-MEL-5 melanoma)

COc1c(Br)cc(/C=C(\C#N)c2cccnc2)cc1Br
75 µM: TGI (HOP-92 NSCLC)
> 100 µM: TGI (MDA-N) | TGI (HT29 colon) | TGI (RXF 393 renal) | TGI (HCC-2998 colon) | TGI (A549 NSCLC) | TGI (ACHN renal) | TGI (OVCAR-4 ovarian) | TGI (SF-268 CNS) | TGI (M14 melanoma) | TGI (SK-MEL-2 melanoma) | TGI (SW-620 colon) | TGI (SNB-75 CNS) | TGI (NCI-H460 lung) | TGI (NCI-H23 lung) | TGI (KM12 colon) | TGI (OVCAR-8 ovarian) | TGI (UACC-62 melanoma) | TGI (SF-295 CNS) | TGI (OVCAR-3 ovarian) | TGI (HOP-62 NSCLC) | TGI (OVCAR-5 ovarian) | TGI (PC-3 prostate) | TGI (NCI-H522 lung) | TGI (IGROV1 ovarian) | TGI (UACC-257 melanoma) | TGI (CAKI-1 renal) | TGI (SN12C renal) | TGI (MCF7 breast) | TGI (786-0 renal) | TGI (SK-MEL-28 melanoma) | TGI (SK-OV-3 ovarian) | TGI (SF-539 CNS) | TGI (NCI/ADR-RES ovarian) | TGI (SR leukemia) | TGI (CCRF-CEM leukemia) | TGI (HL-60(TB) leukemia) | TGI (HCT-116 colon) | TGI (NCI-H226 lung) | TGI (BT-549 breast) | TGI (MOLT-4 leukemia) | TGI (K-562 leukemia) | TGI (SNB-19 CNS) | TGI (HCT-15 colon) | TGI (MALME-3M melanoma) | TGI (TK-10 renal) | TGI (UO-31 renal) | TGI (EKVX NSCLC) | TGI (SK-MEL-5 melanoma) | TGI (COLO 205 colon) | TGI (DU-145 prostate) | TGI (U251 CNS) | TGI (RPMI-8226 leukemia)

C[C@]12C[C@@H](c3ccccc3)Nc3ccccc3N1C(c1ccccc1)=NO2
34.7 µM: TGI (COLO 205 colon)
74.3 µM: TGI (CCRF-CEM leukemia)
81.9 µM: TGI (OVCAR-4 ovarian)
79.3 µM: TGI (EKVX NSCLC)
34.6 µM: TGI (SR leukemia)
93.3 µM: TGI (M14 melanoma)
> 100 µM: TGI (HT29 colon) | TGI (RXF 393 renal) | TGI (HCC-2998 colon) | TGI (A549 NSCLC) | TGI (ACHN renal) | TGI (SF-268 CNS) | TGI (SW-620 colon) | TGI (HS 578T breast) | TGI (NCI-H460 lung) | TGI (NCI-H23 lung) | TGI (KM12 colon) | TGI (OVCAR-8 ovarian) | TGI (UACC-62 melanoma) | TGI (SF-295 CNS) | TGI (OVCAR-3 ovarian) | TGI (HOP-62 NSCLC) | TGI (OVCAR-5 ovarian) | TGI (PC-3 prostate) | TGI (IGROV1 ovarian) | TGI (UACC-257 melanoma) | TGI (CAKI-1 renal) | TGI (SN12C renal) | TGI (MCF7 breast) | TGI (MDA-MB-231 breast) | TGI (786-0 renal) | TGI (SK-OV-3 ovarian) | TGI (SF-539 CNS) | TGI (NCI/ADR-RES ovarian) | TGI (HCT-116 colon) | TGI (K-562 leukemia) | TGI (SNB-19 CNS) | TGI (HCT-15 colon) | TGI (MALME-3M melanoma) | TGI (TK-10 renal) | TGI (A498 renal) | TGI (DU-145 prostate) | TGI (U251 CNS)
58.4 µM: TGI (HOP-92 NSCLC)
43.5 µM: TGI (MOLT-4 leukemia)
58.5 µM: TGI (MDA-MB-435)
69.4 µM: TGI (SNB-75 CNS)
90.8 µM: TGI (NCI-H226 lung)
89.5 µM: TGI (UO-31 renal)
86.4 µM: TGI (NCI-H522 lung)
68.7 µM: TGI (MDA-N)
30.8 µM: TGI (SK-MEL-5 melanoma)
76.3 µM: TGI (SK-MEL-2 melanoma)
71.9 µM: TGI (HL-60(TB) leukemia)
90.3 µM: TGI (BT-549 breast)
49.3 µM: TGI (RPMI-8226 leukemia)
